Assay results published in US6013626A (priority 1995, dated 2000).

How the values were obtained:
[1] = tested on: A-10 rat aortic smooth muscle cells; format: cell-based
Procedure: A-10 cells were grown to near-confluency on glass coverslips in BME/10% FBS. Compounds in PBS were added to the indicated final concentrations and cells were incubated for an additional 24 hours. For the staining of microtubules and intermediate filaments, the cells were fixed with cold methanol and incubated with PBS containing 10% calf serum to block nonspecific binding sites. Cells were then incubated at 37° C. for 60 min with either monoclonal anti-β-tubulin or with monoclonal anti-vimentin at dilutions recommended by the manufacturer. Bound primary antibodies were subsequently visualized by a 45-minute incubation with fluorescein-conjugated rabbit antimouse IgG. The coverslips were mounted on microscope slides and the fluorescence patterns were examined and photographed using a Zeiss Photomicroscope I11 equipped with epifluoroescence optics for fluorescein. […] PBS containing 100 nM TRITC-phalloidin was then added and the mixture was allowed to incubate for 45 min at 37° C. The cells were washed rapidly three times with PBS before the coverslips were mounted and immediately photographed as described above.
After 24 hours, microtubules and vimentin intermediate filaments were visualized by indirect immunofluorescence and microfilaments were stained using TRITC-phalloidin. The morphological effects of each drug were examined.
After 24 hours, microtubule organization was examined by immunofluorescence as described above.
The cells were then washed and incubated in drug-free medium for periods of 1 hour or 24 hours.

SKOV3 cells = assay: Reversibility of inhibition of SKOV3 cell proliferation; format: cell-based, human; details: SKOV3 cells treated 24 hours with IC50 dose, then drug-free medium
Procedure: After 24 hours the cells were washed and incubated in drug-free medium for the time indicated. The cell density was determined by sulforhodamine B (SRB) staining as described in the Experimental Section, and is expressed as the mean ± sd adsorbance at 560 nm for triplicate samples in one of three experiments.

Compound: CC[C@]1(O)C[C@@H]2CN(CCc3c([nH]c4ccccc34)[C@@](C(=O)OC)(c3cc4c(cc3OC)N(C)[C@H]3[C@@](O)(C(=O)OC)[C@H](OC(C)=O)[C@]5(CC)C=CCN6CC[C@]43[C@@H]65)C2)C1 [Vinblastine]
- effect on taxol-stabilized microtubules ([1]; A-10 cells pretreated 3 hours with 10 μM taxol, then 100 nM vinblastine or 10 nM cryptophycin compound, 24 hours): pretreatment with taxol prevented microtubule depolymerization
- effect on vimentin intermediate filaments ([1]; A-10 cells, 24 hours, 100 nM vinblastine or 10 nM cryptophycin compounds): vimentin intermediate filaments collapsed
- effect on microtubules ([1]; A-10 cells, 24 hours, 2 μM cytochalasin B, 100 nM vinblastine or 10 nM cryptophycin compounds): marked depletion of microtubles
- reversibility of microtubule depolymerization after removal of compound ([1]; A-10 cells, 24 hr with 100 nM vinblastine or 10 nM cryptophycins, then drug-free medium 1 hour or 24 hours): complete morphological recovery by 24 hour
- increase in cell number in the 24 hours following removal of the drug (SKOV3 cells): approximately 3 fold
